Measured values as given in US11179409B2, “Cucurbitane tetracyclic triterpenoid compounds for application in treating pulmonary fibrosis” (CHENGDU BIOPURIFY LTD., priority 2015, dated 2021).

Tests used:
[1] = system: bleomycin-induced pulmonary fibrosis model mice; assay: Bleomycin-induced mice pulmonary fibrosis model (tracheal bleomycin, stomach perfusion of drug); assay type: in vivo; details: for No. of neutrophils in bronchoalveolar lavage fluid / Total No. of cells in bronchoalveolar lavage fluid: n = 5; for Lung tissue fibrosis degree (Masson staining) compared with model group: mice killed on day 28; for Lung coefficients compared with model group: day 28 after modeling, FIG. 7
[2] = system: TGF-β1-induced human alveoli type II epithelial cells (A549); assay: α-SMA expression (Western blot) in TGF-β1-induced A549 epithelial-mesenchymal transition; assay type: cell-based; details: TGF-β1 5 ng/mL, culture 48 hours, concentration of 50 μM, FIG. 5
From the text: Alveolar epithelial cells can obtain mesenchymal cell phenotypes through an epithelial cell-mesenchyme transformation (EMT) process to serve as an important source of myofibroblast and muscle fiber metrocyte. In this new mode, epithelial cell-mesenchyme transformation of pulmonary alveoli should be considered as one of key links of fibrosis. In mature cells, injury can induce transformation of epithelial cells into mesenchymal cell phenotype, thus facilitating the fibrosis of many organs. Fibroblasts and muscle fiber metrocytes differentiated from epithelial cells often change through form (for example, change from a cubical cell form to a strip form or a fusiform), obtaining of specific marker of the fibroblast or the muscle fiber metrocyte (for example, α-SMA) and loss of the epithelial character marker (for example, epithelial cell cadherin (E-cadherin and closely linked protein) are fussed together with these epithelial tissues. Through an in-vitro test, A549 cells are induced with TGF-β1 to generate epithelial cell-mesenchyme transformation (EMT), the α-SMA expression level of actin is analyzed adopting a Western blot method, and study meaning of mogroside IIIe on pathogensis of pulmonary fibrosis in a signal transduction pathway of an EMT process is discussed. […]

[3] = system: LPS-induced RAW264.7 cells; assay: NO level in LPS-induced RAW264.7 cells; assay type: cell-based, mice; details: within a range of 10-100 μM
[4] = system: bleomycin-induced pulmonary fibrosis model mice; assay: Bleomycin-induced mice pulmonary fibrosis model (tracheal bleomycin, stomach perfusion of drug); assay type: in vivo; details: for Body weights compared with model group / Lung coefficients (lung weight mg/body weight g) compared with model group: high-dose and low-dose mogroside IIIe groups, prednisone acetate 6.67 mg/kg/d, P<0.01; for Body weights compared with model group: after 14 and 28 days of administration, FIG. 1; for Lung coefficients (lung weight mg/body weight g) compared with model group: after administration for 14 days and 28 days, FIG. 2; for Lung tissue fibrosis degree (Masson staining) compared with model group: lung section on day 28, FIG. 3
From the text: The above mogroside IIIe is selected to be subjected to in-vivo pharmacodynamical research. Injection of a bleomycin-induced mice pulmonary fibrosis model is a commonly used method in the world, and such model is similar to a human pulmonary interstitial fibrosis model.
100 male ICR mice with a body weight of 25-30 g are provided by Comparative Medicine Center of Yangzhou University.
20 mice are used as a blank control group (control group in FIG. 1), and the other 80 mice are used for modeling. All the above mice are anesthetized by virtue of intraperitoneal injection of 4% chloral hydrate, with injection volume of 10 ml/kg. After anesthesia, each mouse is fixed and the neck of the mouse is disinfected; the skin of its neck is cut longitudinally with scissors to expose the trachea; the syringe is inserted into the trachea. The mice in the blank control group are injected with normal saline, and the remaining mice are injected with bleomycin (5 mg/kg); then the mouse plate is quickly erected and rotated, and the wound of each mouse is sutured after observing the breathing condition of the mouse, and 1-2 drops of penicillin injection are dropped at the suture. The postoperative mouse is placed back in a dry and clean mouse cage for rest, and then is normally fed after it revives approximately 1-2 h later.
Starting from the day 7 after modeling, the other 80 mice are randomly divided into a model group, a positive drug (prednisone acetate) group, a high-dose mogroside IIIe (50 mg/kg, mogroside IIIe-H) group, a low-dose mogroside IIIe group (10 mg/kg, mogroside IIIe-L), 20 mice in each group.
The mice in the blank control group and the model group are subjected to stomach perfusion with normal saline every day, the mice in the positive drug group are subjected to stomach perfusion with 6.67 mg/kg/d prednisone acetate, the mice in the high-dose/low-dose mogroside IIIe groups are subjected to stomach perfusion with 50 mg/kg/d and 10 mg/kg/d respectively for continuous 28 days, and are killed on the day 14 and the day 28. The each mouse is recorded in body weight, the lung tissue is taken out via dissection, cleaned with ice normal saline, sucked dry with absorbent paper and weighed, and then a lung coefficient is calculated, i.e., lung coefficient=lung weight (mg)/body weight (g). The left lung is put into 4% neutral formaldehyde for fixation, gradually dehydrated with alcohol, transparentized with xylene, immersed in wax, embedded in paraffin, then routinely sectioned and subjected to Masson staining, so that the lung tissue morphology, lung injury condition and pulmonary fibrosis degree are observed. Other lung lobes are individually stored for determination of HYP content.
All data are expressed as mean±SD(x±s). SPSS 11.5 statistical software is used for processing. Statistical analysis is performed using one-way ANOVA. P<0.05 represents this group has statistical significance.
For mice lung tissue injury caused by bleomycin, the number of leukocytes is increased, especially neutrophil infiltration causes alveolar inflammation, and inflammatory cells release inflammatory mediators NO, TNF-α and various cytokines, thereby on one hand, aggravating lung tissue injury and on the other hand promoting excessive increase of collagen through various growth factors. This experiment is performed in accordance with requirement specification of a kit. The number of leukocytes in the bronchoalveolar lavage fluid of the mice in each group is detected by a colorimetric method on the day 14 (as shown in Table 1). Neutrophils and lymphocytes are obviously accumulated in the bronchoalveolar lavage fluid of the mice on the day 14 after treatment with bleomycin (BLM).
Hydrooxyproline (HPY) is an amino acid obtained through protein hydrolysis of connective tissues, accounts for about 14% of the weight of collagen and plays a crucial role in stability of collagen. […]

[5] = Example 3, Table 3, 50 mg/kg high-dose group, day 14, vs model group
[6] = Example 3, mogrol 50 mg/kg and 20 mg/kg, prednisone acetate 7.0 mg/kg/d, FIG. 9
[7] = Example 1, Table 1, 50 mg/kg high-dose group, day 14, mean±SD, *P<0.05 vs model group
[8] = Example 1, on the 28 d after administration, P<0.05 or P<0.01
[9] = Example 2, Table 2, 50 mg/kg high-dose group, day 14, *P<0.05 vs model group
[10] = Example 2, mogroside IVe 50 mg/kg and 20 mg/kg, prednisone acetate 6.67 mg/kg/d, after administration for 14 days and 28 days, P<0.01, FIG. 6
[11] = Example 2, mogroside IVe 50 mg/kg and 20 mg/kg, prednisone acetate 6.67 mg/kg/d, P<0.01

Compound	Body weights compared with model group [1, 6]	Body weights compared with model group ([4]; Example 1)	Lung coefficients (lung weight mg/body weight g) compared with model group ([4]; Example 1)	Lung tissue fibrosis degree (Masson staining) compared with model group ([4]; Example 1)	Lung tissue fibrosis degree (Masson staining) compared with model group ([1]; Example 2, FIG. 8)	Body weights compared with model group [1, 10]	Lung coefficients compared with model group [1, 11]	further results
C[C@H](CC[C@@H](O)C(C)(C)O)[C@H]1CC[C@@]2(C)[C@@H]3CC=C4[C@@H](CC[C@H](O)C4(C)C)[C@]3(C)[C@H](O)C[C@]12C [mogrol]	obviously increased							No. of neutrophils in bronchoalveolar lavage fluid [1, 5]: 4.16 ± 4.26 ×10^4; Total No. of cells in bronchoalveolar lavage fluid [1, 5]: 34.72 ± 17.83 ×10^4; Lung tissue fibrosis degree (Masson staining) compared with model group ([1]; Example 3, high-dose/low-dose mogrol (50, 20 mg/kg), FIG. 10): fibroblast hyperplasia degree is lower than that in the model group; Lung index compared with model group ([1]; Example 3, high-dose/low-dose mogrol groups): obviously reduce lung index
C[C@H](CC[C@@H](O[C@@H]1O[C@H](CO)[C@@H](O)[C@H](O)[C@H]1O[C@@H]1O[C@H](CO)[C@@H](O)[C@H](O)[C@H]1O)C(C)(C)O)[C@H]1CC[C@@]2(C)[C@@H]3CC=C4[C@@H](CC[C@H](O[C@@H]5O[C@H](CO)[C@@H](O)[C@H](O)[C@H]5O)C4(C)C)[C@]3(C)[C@H](O)C[C@]12C [mogroside IIIe]		obviously increased	obviously decreased	fibroblast hyperplasia degree is lower than that in the model group				α-SMA expression caused by TGF-β1 [2]: significantly inhibit; Number of neutrophils in bronchoalveolar lavage fluid [1, 7]: 4.28 ± 4.52*; Content of HYP in lung tissue compared with model group ([1]; Example 1, 50 mg/kg, day 28, digestion method, P<0.05, FIG. 4): obviously reduce the content of HYP; Content of TGF-β1 compared with model group [1, 8]: significantly lower than those in the model group; Level of NO [3]: dose dependence to inhibit the level of NO; Total number of cells in bronchoalveolar lavage fluid [4, 7]: 32.81 ± 18.53*; Content of TNF-α in the lung tissue compared with model group [4, 8]: significantly lower than those in the model group
C[C@H](CC[C@@H](O[C@@H]1O[C@H](CO)[C@@H](O)[C@H](O)[C@H]1O[C@@H]1O[C@H](CO)[C@@H](O)[C@H](O)[C@H]1O)C(C)(C)O)[C@H]1CC[C@@]2(C)[C@H]3CC=C4[C@@H](CC[C@H](O[C@@H]5O[C@H](CO[C@@H]6O[C@H](CO)[C@@H](O)[C@H](O)[C@H]6O)[C@@H](O)[C@H](O)[C@H]5O)C4(C)C)[C@]3(C)[C@H](O)C[C@]12C [mogroside IVe]					fibroblast hyperplasia degree is lower than that in the model group	obviously increased	obviously reduced	No. of neutrophils in bronchoalveolar lavage fluid [1, 9]: 3.97 ± 3.89* ×10^4; Total No. of cells in bronchoalveolar lavage fluid [1, 9]: 30.84 ± 16.49* ×10^4
CC(=O)OCC(=O)[C@@]1(O)CC[C@H]2[C@@H]3CCC4=CC(=O)C=C[C@]4(C)[C@H]3C(=O)C[C@@]21C [prednisone acetate, reference compound]	obviously increased	obviously increased	obviously decreased	the degree of the lesion is relieved than that in the model group	relieved	obviously increased	obviously reduced	
